Results as given in publication PMC10800876, “Evaluation of proline-rich antimicrobial peptides as potential lead structures for novel antimycotics against Cryptococcus neoformans” (Frontiers in Microbiology, 2024).
≈ marks a conversion by molar mass, not a printed value. Where two headings read alike, the source gives them in different places. Non-standard residues stand in square brackets, D forms with d. Residues, ends and D or L forms follow the SMILES beside them. *: point of attachment. Orn(α-tetramethylguanidino) = CN(C)C(=N[C@@H](CCCN)C(=O)*)N(C)C; Ac6c = NC1(C(=O)O)CCCCC1

Experiments:
[1] = system: C. neoformans 1841 (serotype D); conditions: for MIC (μmol/L) 1841 48 h: 1841 (serotype D, 48 h, pH 7.5); for MIC (μmol/L) 1841 24 h: 1841 (serotype D, 24 h, pH 7.5)
[2] = system: C. neoformans KN99α; assay: Antifungal activity assay (CFU on SAB agar); assay type: cell-based, Cryptococcus neoformans; conditions: treatment 3 h, 30 °C, mean ± SD, n = 4; for cell count C. neoformans KN99α, 24 h: CFU counted after 24 h; for cell count C. neoformans KN99α, 48 h: CFU counted after 48 h
[3] = system: C. neoformans 1841; assay: Scanning electron microscopy, damaged cells; assay type: cell-based, Cryptococcus neoformans; conditions: 200 μmol/L, 10^8 CFU/mL, 3 h, 30°C
Experimental: Overnight cultures of C. neoformans 1841 were prepared as described and adjusted with 50% SAB in phosphate buffer to reach 1 × 10^8 CFU/mL. Aqueous peptide solutions (20 μL) were added to the cell suspension (80 μL) to give a final peptide concentration of 200 μmol/L. Samples were incubated at 30°C on an orbital shaker (750 rpm) for 3 h. Samples were centrifuged (2,000 × g, 10 min, 4°C, Microfuge 22R, Beckmann Coulter), cell pellets were washed with ice-cold phosphate-buffered saline (PBS, 100 μL) and centrifuged again. Cell pellets were re-suspended in PBS (25 μL) and adhered overnight in humid atmosphere to glass coverslips (Borosilicate Glass, VWR International GmbH) previously coated with 0.001% poly-L-lysine (in case of Critical-Point Drying). Cells were fixed (2% glutaraldehyde, 2% paraformaldehyde, in PBS) for 60 min and afterwards stained with 1% OsO4 in PBS for 60 min. The cells were gradually dehydrated in ethanol series (30, 50, 70, 85, 90, 96% (once), and 100% (thrice) for 10 min. The coverslips were critical-point-dried (Baltec CPD 030, BAL-TEC GmbH, Schalksmühle, Germany) or air-dried after incubation with HMDS (3 min, RT) and sputter coated with 20 nm gold/palladium (Baltec MED 020, BAL-TEC GmbH). Cells were visualized using the SEM secondary electron detector (Zeiss EVO LS 15 LaB6, Carl Zeiss Microscopy Deutschland GmbH).
GraphPad Prism 10.0.3 software was used for statistical analysis of the recorded data. A Dunnett’s multiple comparisons test (Ordinary-one-way ANOVA) was performed.

[4] = system: C. neoformans H99; assay: Antifungal activity assay (CFU on SAB agar); assay type: cell-based, Cryptococcus neoformans; conditions: treatment 3 h, 30 °C, mean ± SD, n = 4; for cell count C. neoformans H99, 24 h: CFU counted after 24 h; for cell count C. neoformans H99, 48 h: CFU counted after 48 h
[5] = system: C. neoformans 1841; assay: Time-kill assay; assay type: cell-based, Cryptococcus neoformans; conditions: 2.5 μmol/L, 30°C, up to 24 h
Experimental: The kinetic effects of the antifungal activity were determined by diluting overnight cultures to 5 × 10^4 CFU/mL with 50% SAB in phosphate buffer. Aqueous peptide solutions (20 μL) were added to the cell suspension (80 μL) to give a final peptide concentration of 2.5 μmol/L. Samples were incubated at 30°C on an orbital shaker (750 rpm, Titramax 1,000, Heidolph Instruments GmbH & Co. KG) for 24 h. Before incubation (0 min) and after 45 min, 90 min, 3 h, 6 h, and 24 h incubation, aliquots (10 μL) of samples were taken and diluted with phosphate buffer (10 mmol/L, pH 7.5) to observe countable cell colonies. Aliquots (100 μL) of the diluted cell suspensions were plated on SAB agar plates. Plates were incubated at 30°C and colonies were counted after 24 h.

[6] = system: C. neoformans H99 (serotype A); conditions: for MIC (μmol/L) H99 24 h: H99 (serotype A, 24 h)
[7] = system: C. neoformans strains 1841, H99, and KN99α; assay: Broth microdilution assay (MIC); assay type: cell-based, Cryptococcus neoformans
[8] = system: C. neoformans KN99α (serotype A, mating type MATα); conditions: for MIC (μmol/L) KN99α 48 h: KN99α (serotype A, mating type MATα, 48 h); for MIC (μmol/L) KN99α 24 h: KN99α (serotype A, mating type MATα, 24 h)
[9] = system: C. neoformans strains 1841, H99, and KN99α; assay: Antifungal activity assay (CFU); assay type: cell-based, Cryptococcus neoformans
[10] = system: C. neoformans 1841; assay: Antifungal activity assay (CFU on SAB agar); assay type: cell-based, Cryptococcus neoformans; conditions: treatment 3 h, 30 °C, mean ± SD, n = 4; for cell count C. neoformans 1841, 24 h: CFU counted after 24 h; for cell count C. neoformans 1841, 48 h: CFU counted after 48 h
[11] = broth microdilution, 50% SAB in phosphate buffer, 30°C, read after 24 h, n = 6
[12] = broth microdilution, 50% SAB in phosphate buffer, 30°C, read after 48 h, n = 6

Structure (SMILES) | MIC (μmol/L) 1841 48 h [1] [µmol/L] | cell count C. neoformans KN99α, 24 h ([2]; 0.25 µmol/L) | cell count C. neoformans KN99α, 48 h ([2]; 0.25 µmol/L) | cell count C. neoformans KN99α, 24 h ([2]; 2.5 µmol/L) | cell count C. neoformans KN99α, 48 h ([2]; 2.5 µmol/L) | cell count C. neoformans KN99α, 24 h ([2]; 25 µmol/L) | cell count C. neoformans KN99α, 48 h ([2]; 25 µmol/L) | damaged cells in SEM [3] | cell count C. neoformans H99, 24 h ([4]; 0.25 µmol/L) | cell count C. neoformans H99, 48 h ([4]; 0.25 µmol/L) | cell count C. neoformans H99, 24 h ([4]; 2.5 µmol/L) | cell count C. neoformans H99, 48 h ([4]; 2.5 µmol/L) | cell count C. neoformans H99, 24 h ([4]; 25 µmol/L) | cell count C. neoformans H99, 48 h ([4]; 25 µmol/L) | MIC (μmol/L) H99 24 h [6] [µmol/L] | MIC (μmol/L) KN99α 48 h [8] [µmol/L] | cell count C. neoformans 1841, 24 h ([10]; 0.25 µmol/L) | cell count C. neoformans 1841, 48 h ([10]; 0.25 µmol/L) | cell count C. neoformans 1841, 24 h ([10]; 2.5 µmol/L) | cell count C. neoformans 1841, 48 h ([10]; 2.5 µmol/L) | other results
CC[C@H](C)[C@H](NC(=O)[C@H](Cc1ccc(O)cc1)NC(=O)[C@@H](NC(=O)[C@@H]1CCCN1C(=O)[C@H](CCCNC(=N)N)NC(=O)[C@H](CC(N)=O)NC(=O)[C@H](CC(N)=O)NC(=O)[C@H](CCCN)N=C(N(C)C)N(C)C)C(C)C)C(=O)N1CCC[C@H]1C(=O)N[C@@H](CCCNC(=N)N)C(=O)N1CCC[C@H]1C(=O)N[C@@H](CCCNC(=N)N)C(=O)N1CCC[C@H]1C(=O)N1CCC[C@H]1C(=O)N[C@@H](Cc1c[nH]cn1)C(=O)N1CCC[C@H]1C(=O)N[C@@H](CCCNC(=N)N)C(=O)N[C@@H](CC(C)C)C(N)=O [Api88] ({Orn(α-tetramethylguanidino)}-NNRPVYIPRPRPPHPRL-NH2; N-terminus and C-terminus assumed) | 7.0 (≈ 16 µg/mL) | 3.0 ± 0.7 x 10^4 CFU/mL | 3.1 ± 0.8 x 10^4 CFU/mL | 3.0 ± 0.6 x 10^4 CFU/mL | 3.1 ± 0.7 x 10^4 CFU/mL | 1.5 ± 0.2 x 10^4 CFU/mL | 1.6 ± 0.3 x 10^4 CFU/mL | only a small portion showed deep indentations | 2.7 ± 0.4 x 10^4 CFU/mL | 2.8 ± 0.5 x 10^4 CFU/mL | 3.0 ± 0.2 x 10^4 CFU/mL | 3.3 ± 0.3 x 10^4 CFU/mL | 1.7 ± 0.2 x 10^4 CFU/mL | 2.0 ± 0.4 x 10^4 CFU/mL | 7.0 (≈ 16 µg/mL) | 7.0 (≈ 16 µg/mL) | 2.4 ± 0.1 x 10^4 CFU/mL | 2.4 ± 0.1 x 10^4 CFU/mL | 1.0 ± 0.1 x 10^4 CFU/mL | 1.0 ± 0.1 x 10^4 CFU/mL | MIC (mg/L) 1841 24 h [1, 11]: 8 mg/L (≈ 3.49 µM); MIC (mg/L) 1841 48 h [1, 12]: 16 mg/L (≈ 6.98 µM); time-dependent antifungal effect [5]: delayed antifungal effect; MIC (mg/L) H99 48 h [6, 12]: 8 mg/L (≈ 3.49 µM); MIC at 48 h ([7]; 48 h, forward sequence compared with its scrambled sequence): 7.0 µM (≈ 16 µg/mL); MIC ([7]; strains 1841, H99, and KN99α, 24 h): ≥ 3.5 µM; MIC (mg/L) KN99α 24 h [8, 11]: 8 mg/L (≈ 3.49 µM); effect on CFU of C. neoformans strains H99 and KN99α ([9]; 2.5 μmol/L, 3 h incubation): did not significantly reduce the CFU; cell count C. neoformans 1841, 24 h ([10]; 25 µmol/L): 0.1 ± 0.0 x 10^4 CFU/mL; cell count C. neoformans 1841, 48 h ([10]; 25 µmol/L): 0.1 ± 0.0 x 10^4 CFU/mL
CC(C)C[C@H](NC(=O)[C@@H]1CCCN1C(=O)[C@@H]1CCCN1C(=O)[C@H](CCCNC(=N)N)NC(=O)[C@H](Cc1ccc(O)cc1)NC(=O)[C@@H]1CCCN1C(=O)[C@@H]1CCCN1C(=O)[C@H](CCCNC(=N)N)NC(=O)C1(NC(=O)[C@H](CCCNC(=N)N)NC(=O)[C@@H]2CCCN2C(=O)[C@H](CCCCN)NC(=O)[C@@H]2CCCN2C(=O)[C@H](CCCNC(=N)N)NC(=O)[C@@H]2CCCN2C(=O)[C@H](CCCNC(=N)N)NC(=O)[C@@H](NC(=O)[C@H](CCCNC(=N)N)NC(=O)[C@@H](N)CC(=O)O)C(C)C)CCCCC1)C(=O)N1CCC[C@H]1C(N)=O [Chex1Arg20 scr] (H-DRVRPRPKPR[Ac6c]RPPYRPPLP-NH2; N-terminus assumed) | 26 to 52 |  |  |  |  |  |  | slightly lower percentage of damaged cells than Chex1Arg20 |  |  |  |  |  |  | 26 (≈ 64.4 µg/mL) | 52 (≈ 129 µg/mL) |  |  |  |  | MIC (mg/L) 1841 24 h ([1]; 1841 (serotype D, 24 h)): 32 to 64 mg/L; MIC (μmol/L) 1841 24 h [1]: 13 to 26 µmol/L; MIC (mg/L) 1841 48 h ([1]; 1841 (serotype D, 48 h)): 64 to 128 mg/L; MIC (μmol/L) H99 48 h ([6]; H99 (serotype A, 48 h)): 52 µmol/L (≈ 129 µg/mL); MIC (μmol/L) KN99α 24 h [8]: 26 µmol/L (≈ 64.4 µg/mL)
CC(C)C[C@H](NC(=O)[C@H](Cc1ccc(O)cc1)NC(=O)[C@@H]1CCCN1C(=O)[C@H](CCCNC(=N)N)NC(=O)[C@@H]1CCCN1C(=O)[C@H](CCCCN)NC(=O)[C@H](CC(=O)O)NC(=O)[C@@H]1CCCN1C(=O)[C@H](CCCNC(=N)N)NC(=O)C1(N)CCCCC1)C(=O)N1CCC[C@H]1C(=O)N[C@@H](CCCNC(=N)N)C(=O)N1CCC[C@H]1C(=O)N[C@@H](CCCNC(=N)N)C(=O)N1CCC[C@H]1C(=O)N1CCC[C@H]1C(=O)N[C@@H](CCCNC(=N)N)C(=O)N1CCC[C@H]1C(=O)N[C@H](C(=O)N[C@@H](CCCNC(=N)N)C(N)=O)C(C)C [Chex1Arg20] (H-[Ac6c]RPDKPRPYLPRPRPPRPVR-NH2; N-terminus assumed) | 3.2 (≈ 7.92 µg/mL) | 2.7 ± 0.4 x 10^4 CFU/mL | 2.7 ± 0.4 x 10^4 CFU/mL | 1.0 ± 0.6 x 10^4 CFU/mL | 1.8 ± 1.2 x 10^4 CFU/mL | 0.5 ± 0.8 x 10^4 CFU/mL | 0.8 ± 0.9 x 10^4 CFU/mL | only a small portion showed deep indentations | 1.4 ± 0.7 x 10^4 CFU/mL | 1.6 ± 0.8 x 10^4 CFU/mL | 1.5 ± 1.0 x 10^4 CFU/mL | 2.5 ± 0.8 x 10^4 CFU/mL | 0.0 ± 0.0 x 10^4 CFU/mL | 0.8 ± 0.2 x 10^4 CFU/mL | 1.6 (≈ 3.96 µg/mL) | 3.2 (≈ 7.92 µg/mL) | 2.7 ± 0.0 x 10^4 CFU/mL | 2.8 ± 0.1 x 10^4 CFU/mL | 0.0 ± 0.0 x 10^4 CFU/mL | 0.5 ± 0.1 x 10^4 CFU/mL | MIC (μmol/L) 1841 24 h [1]: 1.6 µmol/L (≈ 3.96 µg/mL); MIC (mg/L) H99 48 h ([6]; H99 (serotype A, 48 h)): 4 to 8 mg/L; MIC (μmol/L) H99 48 h ([6]; H99 (serotype A, 48 h)): 1.6 to 3.2 µmol/L; MIC [7]: 4 to 16 µg/mL; MIC (μmol/L) KN99α 24 h [8]: 1.6 µmol/L (≈ 3.96 µg/mL); colony formation on agar ([9]; only small colonies appearing after more than 24 h): delayed colony formation; cell count C. neoformans 1841, 24 h ([10]; 25 µmol/L): 0.0 ± 0.0 x 10^4 CFU/mL; cell count C. neoformans 1841, 48 h ([10]; 25 µmol/L): 0.0 ± 0.0 x 10^4 CFU/mL
